Values joined by “and” are separate entries in the source; they are usually repeats but may differ in a detail not shown here. Identical values can stand only once.
Tested on: 922993-354-T-J3-PDC complex spheroids, viability, % test/control
Test: Anticancer human tumor 922993-354-T-J3-PDC patient-derived endometrial carcinoma cell line growth inhibition [CLK]
Conditions: for viability, T/C: stronger effect = lower value
Description: A high-throughput screen of multi-cell type tumor spheroids was designed to identify active combinations of […] and targeted small molecules. Complex spheroids include a stromal component modeled by human endothelial cells (HUVEC) and fibroblasts modeled by human mesenchymal stem cells (MSCs). The concentration ranges selected for each drug and investigational agent were based upon clinically achievable concentrations if the clinical Cmax of the agent was known.
Compounds. The drugs and investigational agents: cirtuvivint (SM08502; NSC835563), CC-671 (NSC850746), vemurafenib (NSC761431), tapotoclax (NSC804041), sotorasib (NSC818433), adagrasib (NSC831453), MRTX-1133 (NSC836407), BAY2416964 (NSC825713), copanlisib (NSC816437), inavolisib (NSC800729), abemaciclib (NSC768073), osimertinib (NSC779217), entinostat (NSC756642), eltanexor (KPT-8602, NSC794443), venetoclax (NSC766270), ceralasertib (NSC777638), bortezomib (NSC756655), olaparib (NSC753686), talazoparib (NSC767125), alisertib (NSC759677), peposertib (NSC802822), gemcitabine (NSC613327), 5-fluorouracil (NSC19893), SN-38 (NSC673596), oxaliplatin (NSC266046), paclitaxel (NSC125973), and doxorubicin (NSC123127), were obtained from the National Cancer Institute (NCI) Developmental Therapeutics Program Chemical Repository. The FDA-approved anticancer drug set is available from the Developmental Therapeutics Program at https://dtp.cancer.gov/organization/dscb/obtaining/available plates.htm. […] The stock solutions were prepared in dimethyl sulfoxide (DMSO, Sigma-Aldrich, St. Louis, MO, cat. D2650), except for the platinum complexes which were prepared in saline (Quality Biological, Gaithersburg, MD, cat. 114-055-101), at 800-fold the tested concentration and stored at -70 degrees C prior to their use. All drugs and investigational agents were tested over a range starting from a high concentration at or near the clinical Cmax and decreasing in half-log increments. If the clinical Cmax for an agent had not been determined, the highest concentration tested was 10 microM.
Cell Culture. All cells were maintained in an incubator at 37 degrees C and 5% CO2 with 95% humidity. The PDC lines were cultured according to standard operating procedures established by the NCI PDMR. Briefly, all PDCs were thawed and cultured in Matrigel-coated flasks prepared with a working solution of 1X Ham's F-12 nutrient mix, without supplementation (Invitrogen, Waltham, MA, cat. 11765054), 100 U/mL penicillin-streptomycin (Invitrogen, cat. 15140122), and 2.5% Matrigel (Corning Inc., Corning, NY, cat. 354248) for the first three passages. The 947758-054-R-J2-PDC line was cultured in 6B/Colon 1A media, which includes advanced DMEM/F-12 (Thermo Fisher Scientific, cat. 12634028), 10 mM HEPES (Thermo Fisher Scientific, cat. 15630080), 1X GlutaMAX supplement (Thermo Fisher Scientific, cat. 35050061), 0.1 mg/mL primocin (InvivoGen, cat. ant-pm-2), 10% defined fetal bovine serum, heat inactivated (HyClone Laboratories Inc., cat. SH30070.03HI), 1.25 mM N-Acetyl-L-cysteine (Sigma-Aldrich, cat. A9165), 10 mM nicotinamide (Sigma-Aldrich, cat. N0636), 1X B-27 supplement (Thermo Fisher Scientific, cat. 17504044), 1X N-2 supplement (Thermo Fisher Scientific, cat. 17502048), and 10 microM Y-27632 dihydrochloride (Tocris Bioscience, cat. 1254). The 876862-298-R-J1-PDC was cultured in 6E media, which includes all 6B/Colon 1A media components plus 50% L-WRN conditioned media (ATCC, cat. CRL-3276), 50 ng/mL recombinant human EGF recombinant protein (hEGF; Thermo Fisher Scientific, cat. PHG0311), 10 ng/mL recombinant human fibroblast growth factor 10 (hGFG-10; PeproTech, cat. 100-26), 1 ng/mL recombinant human fibroblast growth factor 2 (hFGF-2; PeproTech, cat. 100-18B), and 1 µM prostaglandin E2 (PGE2; Tocris, cat. 2296). The 227483-062-R1-J1-PDC line was cultured in Panc media, containing all 6E components except hFGF-2, with the addition of 500 nM SB-431542 (Selleckchem, cat. S1067) and 10 nM gastrin (Tocris, cat. 3006). […]
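Note: spheroids exposed to the agents for 7 days before readout.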

## CC1(C)CCC(CN2CCN(c3ccc(C(=O)NS(=O)(=O)c4ccc(NCC5CCOCC5)c([N+](=O)[O-])c4)c(Oc4cnc5[nH]ccc5c4)c3)CC2)=C(c2ccc(Cl)cc2)C1
Compound 0.0316 µM
  viability, T/C: 96.7% and 84.1%
Compound 0.1 µM
  viability, T/C: 90.2% and 99.4%
Compound 0.316 µM
  viability, T/C: 110% and 101%
Compound 1 µM
  viability, T/C: 123% and 95.5%
Compound 3.16 µM
  viability, T/C: 85.6% and 121%
Compound 10 µM
  viability, T/C: 36.7% and 82.9%
Curve of compound
  IC50: 7.31 µM and > 10 µM

## O=c1[nH]cc(F)c(=O)[nH]1
Compound 0.0316 µM
  viability, T/C: 102% and 101%
Compound 0.1 µM
  viability, T/C: 95.8% and 97.9%
Compound 0.316 µM
  viability, T/C: 86.8% and 93.4%
Compound 1 µM
  viability, T/C: 104% and 115%
Compound 3.16 µM
  viability, T/C: 38% and 60.7%
Compound 10 µM
  viability, T/C: 26.7% and 35.1%
Curve of compound
  IC50: 2.51 µM and 5.11 µM

## C=CC(=O)Nc1cc(Nc2nccc(-c3cn(C)c4ccccc34)n2)c(OC)cc1N(C)CCN(C)C
Compound 0.000949 µM
  viability, T/C: 93.6% and 122%
Compound 0.003 µM
  viability, T/C: 92.5% and 98.6%
Compound 0.00949 µM
  viability, T/C: 60.9% and 98.1%
Compound 0.03 µM
  viability, T/C: 97.8% and 85.3%
Compound 0.0949 µM
  viability, T/C: 90.1% and 94.2%
Compound 0.3 µM
  viability, T/C: 72.3% and 86.4%
Curve of compound
  IC50: > 0.3 µM

## CC(=O)O[C@H]1C(=O)[C@@]2(C)[C@H]([C@H](OC(=O)c3ccccc3)[C@]3(O)C[C@H](OC(=O)[C@H](O)[C@@H](NC(=O)c4ccccc4)c4ccccc4)C(C)=C1C3(C)C)[C@]1(OC(C)=O)CO[C@@H]1C[C@@H]2O
Compound 0.0316 µM
  viability, T/C: 105% and 92.5%
Compound 0.1 µM
  viability, T/C: 79% and 115%
Compound 0.316 µM
  viability, T/C: 84% and 85.9%
Compound 1 µM
  viability, T/C: 95.6% and 88.3%
Compound 3.16 µM
  viability, T/C: 52.7% and 71.6%
Compound 10 µM
  viability, T/C: 37.1% and 40.2%
Curve of compound
  IC50: 3.86 µM and 6.98 µM

## COc1cccc2c1C(=O)c1c(O)c3c(c(O)c1C2=O)CC(O)(C(=O)CO)CC3OC1CC(N)C(O)C(C)O1 (stereo not given) + CN1CCN(c2cc(C(=O)Nc3cc4cc(-c5cnn(C)c5)ccc4cn3)ccn2)CC1
Curve of first compound, second compound 0.0316 µM
  IC50: 2.21 µM
Curve of first compound, second compound 0.1 µM
  IC50: 1.84 µM
Curve of first compound, second compound 0.316 µM
  IC50: < 0.0316 µM
Curve of first compound, second compound 1 µM
  IC50: < 0.0316 µM
Curve of first compound, second compound 3.16 µM
  IC50: < 0.0316 µM
Curve of first compound, second compound 10 µM
  IC50: < 0.0316 µM
Second compound 0.0316 µM, first compound 0.0316 µM
  viability, T/C: 108%
Second compound 0.0316 µM, first compound 0.1 µM
  viability, T/C: 119%
Second compound 0.0316 µM, first compound 0.316 µM
  viability, T/C: 93.7%
Second compound 0.0316 µM, first compound 1 µM
  viability, T/C: 66.1%
Second compound 0.0316 µM, first compound 3.16 µM
  viability, T/C: 45.2%
Second compound 0.0316 µM, first compound 10 µM
  viability, T/C: 15.5%
Second compound 0.1 µM, first compound 0.0316 µM
  viability, T/C: 123%
Second compound 0.1 µM, first compound 0.1 µM
  viability, T/C: 109%
Second compound 0.1 µM, first compound 0.316 µM
  viability, T/C: 83.3%
Second compound 0.1 µM, first compound 1 µM
  viability, T/C: 65%
Second compound 0.1 µM, first compound 3.16 µM
  viability, T/C: 37.8%
Second compound 0.1 µM, first compound 10 µM
  viability, T/C: 17.4%
Second compound 0.316 µM, first compound 0.0316 µM
  viability, T/C: 31%
Second compound 0.316 µM, first compound 0.1 µM
  viability, T/C: 38%
Second compound 0.316 µM, first compound 0.316 µM
  viability, T/C: 32.9%
Second compound 0.316 µM, first compound 1 µM
  viability, T/C: 26.4%
Second compound 0.316 µM, first compound 3.16 µM
  viability, T/C: 13.3%
Second compound 0.316 µM, first compound 10 µM
  viability, T/C: 11.1%
Second compound 1 µM, first compound 0.0316 µM
  viability, T/C: 0.14%
Second compound 1 µM, first compound 0.1 µM
  viability, T/C: 1.85%
Second compound 1 µM, first compound 0.316 µM
  viability, T/C: 0.14%
Second compound 1 µM, first compound 1 µM
  viability, T/C: 0.11%
Second compound 1 µM, first compound 3.16 µM
  viability, T/C: 0.09%
Second compound 1 µM, first compound 10 µM
  viability, T/C: 1.32%
Second compound 3.16 µM, first compound 0.0316 µM
  viability, T/C: 0.12%
Second compound 3.16 µM, first compound 0.1 µM
  viability, T/C: 0.2%
Second compound 3.16 µM, first compound 0.316 µM
  viability, T/C: 0.67%
Second compound 3.16 µM, first compound 1 µM
  viability, T/C: 0.09%
Second compound 3.16 µM, first compound 3.16 µM
  viability, T/C: 1.78%
Second compound 3.16 µM, first compound 10 µM
  viability, T/C: 1.28%
Second compound 10 µM, first compound 0.0316 µM
  viability, T/C: 0.16%
Second compound 10 µM, first compound 0.1 µM
  viability, T/C: 0.15%
Second compound 10 µM, first compound 0.316 µM
  viability, T/C: 0.16%
Second compound 10 µM, first compound 1 µM
  viability, T/C: 0.15%
Second compound 10 µM, first compound 3.16 µM
  viability, T/C: 1.57%
Second compound 10 µM, first compound 10 µM
  viability, T/C: 1.56%
